Measurements taken from US10947243B2, “Heteroaryl SYK inhibitors” (Boehringer Ingelheim International GmbH, priority 2014, dated 2021).

assay: Human Liver Microsomal Stability Test; assay type: in vitro ADME; details: human liver microsomes; comparison compounds, Example numbers of WO 2011/092128
Protocol: The metabolic degradation for a specific SYK-inhibitor is performed at 37° C. with pooled human liver microsomes (human liver microsomes are commercially available as “BD UltraPool™” by Corning Life Sciences, Fogostraat 12, 1060 LJ Amsterdam, The Netherlands). The final incubation volume of 100 μl per time point contains TRIS buffer pH 7.6 at RT (0.1 M), magnesium chloride (5 mM), microsomal protein (1 mg/ml) and the test compound at a final concentration of 1 μM.
Following a short preincubation period at 37° C., the reaction is initiated by addition of beta-nicotinamide adenine dinucleotide phosphate in its reduced form (NADPH, 1 mM) and terminated by transfering an aliquot into solvent after different time points. Additionally, the NADPH-independent degradation is monitored in incubations without NADPH, terminated at the last time point.
The quenched (terminated) incubations are then pelleted by centrifugation (10000 g, 5 min).
An aliquot of the supernatant is assayed by LC-MS/MS for the remaining amount of parent compound. The half-life (t½ INVITRO) is determined by the slope of the semilogarithmic plot of the concentration-time profile.
The intrinsic clearance (CL_[…]) is calculated by considering the amount of protein in the incubation: CL_[…] [μl/min/mg protein]=(Ln 2/(t½INVITRO [min]*protein content [mg/ml]))*1000
The protein content [mg/ml] was determined with the “Bicinchoninic Acid Kit” of Sigma Aldrich (commercially available).
The upscaled intrinsic Clearance (CL_UP_INT) is calcuated by considering the liver weight [g liver/kg body weight] and the microsomal recovery [mg protein/g liver]: CL_UP_INT [ml/min/kg]=0.001*CL_[…]*liver weight*microsomal recovery • with microsomal recovery=45 mg protein/g liver • with liver weight=25.7 g liver/kg body weight
The percent hepatic blood flow (% Qh) is finally calculated by considering the human liver blood flow Q [ml/min/kg]: % Qh [%]=((Q*CL_UP_INT)/(Q+CL_UP_INT)/Q)*100 • with liver blood flow (Q)=20.7 ml/min/kg.

Question: With `COc1cc(-c2cc3ncccc3c(O[C@H](C)[C@H]3CNC(=O)C3)n2)cc(OC)c1Cl` [Example 8 of WO 2011/092128, reference compound] as the compound, how does the “microsomal stability Cl [% Qh]” value read?
Answer: The value was 77 % Qh.

same assay, conditions: human liver microsomes; comparison compounds, Example numbers of WO 2013/014060

Question: For `COc1cc(-c2cc(O[C@H](C)[C@H]3CNC(=O)C3)c3cccnc3c2)cc(OC)c1OC` [Example 2 of WO 2013/014060, reference compound], which “microsomal stability Cl [% Qh]” value is on record?
Answer: Its value is 81 % Qh.

same assay, conditions: human liver microsomes; compounds of the invention (own Example numbers)

Question: Which “microsomal stability Cl [% Qh]” value does the source give for `C[C@@H](Oc1cc(-c2cnn(C(C)(C)C)c2)cc2nn(C)cc12)[C@H]1CNC(=O)C1` [Example 18, (4R)-4-[(1R)-1-[6-(1-tert-butylpyrazol-4-yl)-2-methyl-indazol-4-yl]oxyethyl]pyrrolidin-2-one] here?
Answer: The value was less than 23 % Qh.

Question: For `C[C@@H](Oc1cc(-c2ccc3c(cnn3C)c2)cc2nn(C)cc12)[C@H]1CNC(=O)C1` [Example 28, (4R)-4-[(1R)-1-[2-methyl-6-(1-methylindazol-5-yl)indazol-4-yl]oxyethyl]pyrrolidin-2-one], which “microsomal stability Cl [% Qh]” value is on record?
Answer: The value was less than 23 % Qh.

Question: With `C[C@@H](Oc1cc(-c2ccc3c(c2)c(N)nn3C)cc2nn(C)cc12)[C@H]1CNC(=O)C1` [Example 36, (4R)-4-[(1R)-1-[6-(3-amino-1-methyl-indazol-5-yl)-2-methyl-indazol-4-yl]oxyethyl]pyrrolidin-2-one] as the compound, how does the “microsomal stability Cl [% Qh]” value read?
Answer: Its value is less than 23 % Qh.

Question: Which “microsomal stability Cl [% Qh]” value does the source give for `COc1cc(-c2cc3nn(C)cc3c(O[C@H](C)[C@H]3CNC(=O)C3)n2)cc(OC)c1OC` [Example 52, (4R)-4-[(1R)-1-[2-methyl-6-(3,4,5-trimethoxyphenyl)-pyrazolo[4,3-c]pyridin-4-yl]oxyethyl]pyrrolidin-2-one] here?
Answer: Its value is less than 23 % Qh.

same assay, conditions: human liver microsomes; percent hepatic blood flow

Question: With `C[C@@H](Oc1cc(-c2ccccn2)cc2ncccc12)[C@H]1CNC(=O)C1` [6 of WO 2013/014060] as the compound, how does the “microsomal stability Cl [% Qh]” value read?
Answer: Its value is 24 % Qh.

Question: For `C[C@@H](Oc1cc(-c2ccc(CN3CCOCC3)cc2)cc2ncccc12)[C@H]1CNC(=O)C1` [43 of WO 2013/014060], which “microsomal stability Cl [% Qh]” value is on record?
Answer: The value was less than 23 % Qh.

Question: Which “microsomal stability Cl [% Qh]” value does the source give for `C[C@@H](Oc1nc(-c2ccc(N3CCOCC3)nc2)cc2ncccc12)[C@H]1CNC(=O)C1` [45 of WO 2011/092128] here?
Answer: Its value is 53 % Qh.

Question: With `C[C@@H](Oc1cc(-c2ccc(C(=O)N3CCN(C)CC3)cc2)cc2ncccc12)[C@H]1CNC(=O)C1` [76 of WO 2013/014060] as the compound, how does the “microsomal stability Cl [% Qh]” value read?
Answer: Its value is less than 23 % Qh.

Question: With `C[C@@H](Oc1cc(-c2ccc3c(c2)CNCC3)cc2ncccc12)[C@H]1CNC(=O)C1` [101 of WO 2013/014060] as the compound, how does the “microsomal stability Cl [% Qh]” value read?
Answer: The value was less than 23 % Qh.

Question: For `C[C@@H](Oc1cc(-c2ccc(N3CCOCC3)cc2)cc2nn(C)cc12)[C@H]1CNC(=O)C1` [Example 22, (4R)-4-[(1R)-1-[2-Methyl-6-(4-morpholinophenyl)indazol-4-yl]oxyethyl]-pyrrolidin-2-one], which “microsomal stability Cl [% Qh]” value is on record?
Answer: The value was 25 % Qh.

Question: With `C[C@@H](Oc1cc(-c2ccc(N3CCN(C)CC3)cc2)cc2nn(C)cc12)[C@H]1CNC(=O)C1` [Example 26, (4R)-4-[(1R)-1-[2-methyl-6-[4-(4-methylpiperazin-1-yl)phenyl]indazol-4-yl]oxyethyl]pyrrolidin-2-one] as the compound, how does the “microsomal stability Cl [% Qh]” value read?
Answer: The value was less than 23 % Qh.

Question: With `CC(C)Oc1ccc(-c2cc(O[C@H](C)[C@H]3CNC(=O)C3)c3cn(C)nc3c2)cn1` [Example 27, (4R)-4-[(1R)-1-[6-(6-isopropoxy-3-pyridyl)-2-methyl-indazol-4-yl]oxyethyl]pyrrolidin-2-one] as the compound, how does the “microsomal stability Cl [% Qh]” value read?
Answer: Its value is less than 23 % Qh.

Question: With `C[C@@H](Oc1nc(-c2ccc(C(F)F)nc2)cc2nn(C)cc12)[C@H]1CNC(=O)C1` [Example 51, (4R)-4-[(1R)-1-[6-[6-(difluoromethyl)-3-pyridyl]-2-methyl-pyrazolo[4,3-c]pyridin-4-yl]oxyethyl]pyrrolidin-2-one] as the compound, how does the “microsomal stability Cl [% Qh]” value read?
Answer: Its value is less than 23 % Qh.
